Test results: article PMC4843002, “Identification of pyrazolopyridazinones as PDEδ inhibitors” (Nature Communications, 2016)

Experiments:
[1] = mouse, in vivo
Experimental: (§1) Determination of pharmacokinetic properties in vivo
50% physiological saline / 40% water.
(§2) The regression equation of the calibration curve was used to calculate plasma concentrations. Pharmacokinetic parameters were calculated using the PKSolver
(§3) Animal experiments and care were conducted at Synovo GmbH (Tübingen, Germany) in accordance with the guidelines of institutional authorities and approved

in vivo = details: female, NMRI, mouse, 3 mg/kg
Experimental: as §1
50% physiological saline / 40% water.
as §2, §3

PANC-1 = assay: CellTiter-Glo cell viability; type: cell-based, human; details: PANC-1, CellTiter-Glo, n = 10
Experimental: Biochemical and Pharmacological Assays
Determination of cell viability using CellTiter-Glo®
Cells were seeded on day 1 at 500 cells per well to assure assay linearity and optimal signal intensity. After incubation for 24h in humidified incubator at 37°C, 5% CO2, compounds / DMSO were added at different concentrations. Cells were further incubated for 72 h at 37°C and 5% CO2. Cells treated with the compound vehicle (DMSO) […].
At day 5 the CellTiter-Glo® Reagent was prepared according to the instructions of the manufacturer (Promega): The Reagent was mixed 1:1 with cell culture medium.
Thereon, mixture and assay plates were equilibrated at room temperature for 20 min.
Equal volumes of the reagent-medium-mixture were added to the volume of culture medium present in each well. The plates were mixed at 200 rpm for 2 minutes on an orbital shaker and afterwards incubated at room temperature for 10 minutes.
Following incubation the luminescence was recorded on a Victor microplate reader (Perkin Elmer) using a 200 ms integration time. The data was analyzed with Excel using the XLFIT Plugin (dose response Fit 205) for IC50-determination.
As quality control the Z´ -factor was calculated from 16 positive and negative control values. Only assay results showing a Z´ -factor ≥ 0.5 were used for further analysis.

SMILES | metabolism in mice [1] | Tmax (in vivo; ip) | C0 (in vivo; iv) | Vd (in vivo; iv) | clearance (in vivo; iv) | AUC(0-inf) (in vivo; iv, AUC 0-inf) | AUC(0-t) (in vivo; iv, AUC 0-t) | half-life (in vivo; iv, t1/2) | IC50 (PANC-1; Homo sapiens, 72 h, read-out: IC50 anti-proliferative activity) | Hill coefficient (PANC-1)
Cc1ccc(-n2nc3c(=O)n(CCCC(=O)NCC(C)c4ccccc4)nc(C)c3c2C)cc1 (stereo not shown) [2k] | rapidly metabolized | 4.8 min | 3380 ng/mL | 1.18 L/kg | 30.8 mL/min/kg | 1620 ng·h/mL | 1620 ng·h/mL | 21 min | – | –
c1ccc(Cn2c(-c3ccc(OC[C@H](C4CCNCC4)n4c(-c5ccccc5)nc5ccccc54)cc3)nc3ccccc32)cc1 [Deltarasin, reference compound] | – | – | – | – | – | – | – | – | 6.67 µM | -10.8
